Results reported in patent EP0925064B1, “5-ANDROSTENE 3 beta,17alpha DIOL AS AN INHIBITOR OF TUMOR GROWTH” (LORIA, Roger M., priority 1996, dated 1997).

What was measured:
ZR-75-1 cells [1] = experiment: Cell proliferation assay (3H-thymidine incorporation, 6 days); format: cell-based, human; conditions: for cell proliferation (Example 1): six day period
Protocol: The ZR-75-1 cell line (passage 89) was obtained from the American Type Culture Collection (Rockville, Maryland). The cells were cultured in RPMI-1640 medium containing 10% heat-inactivated fetal calf serum, 200 µM L-glutamine, […], 1.5 U/ml penicillin, and 1.5 µg/ml streptomycin in 5% CO2 at 37°C. The cells were passaged twice weekly.
(§1) Cells were first seeded at initial density of 1x10^5 cells per ml in quadruplicates in 24 multi-well flat bottom plates (Costar). Cells were then allowed to adhere and grow in phenol red-free […] media supplemented with 10 % heat-inactivated fetal calf serum (FCS), 200 µM L-glutamine, 10 mM HEPES, 2.5 U/ml penicillin and 2.5 µg/ml streptomycin in 5% CO2 at 37°C. After 48 hours, four wells were sacrificed and counted to determine plating efficiency. In the remaining wells, medium was removed by aspiration and cells in each well were exposed to the media containing the specified steroid. The controls containing only medium or medium with vehicle were also prepared. In all samples, medium was changed every 48 hours. At the pre-established time-point. Cells were removed by trypsinization and washed. Cell number and viability were determined by trypan blue exclusion using a hemocytometer. Parallel cultures were also run to determine cell proliferation.
(§2) For cell proliferation assays, cell suspensions were prepared by trypsinization of cells from cultures prepared in accord with methods described above. Cell viability was determined by trypan blue exclusion. The cells were then seeded in flat-bottom 96-well microtiter plates at a density of 2X10^3 cells/well and were allowed to rest for 48 hours in order to adhere. Non-adherent dead cells were removed by aspiration. Cells were then grown in media without phenol red. Some of the media contained supplements as indicated above. The active agents or vehicle control were added to the media. The cells were then grown for six days. Media was changed on the samples every 48 hours. On day 6, cells were pulsed with 1 µCi[…] for the last 6 hours of incubation before harvesting onto glass filter using a HPD cell harvester (Cambridge Technology, Watertown, Massachusetts) and counted on a KLB scintillation counter.
(§3) Initial tests were carried out to determine the optimal (maximal) dose of αAED required to inhibit growth of the ZR-75-1 cells in in vitro as determined by tritiated tymidine incorporation. […] To ensure that inhibition was not due to cytotoxicity, cell count and viability were assessed by trypan blue exclusion.
ZR-75-1 cells (2X10^3) were treated as described above over a six day period with differing concentrations of αAED or with vehicle-only cultures. The medium was changed every 48 hours. Cells were pulsed with ^3H-thymidine for the last six hours of incubation.

ZR-75-1 cells [2] = experiment: Cell count and viability by trypan blue exclusion; format: cell-based, human
Protocol: as §1, §3

P388D1 cells = experiment: Growth of lymphoid neoplasm cells in the presence of RU486; format: cell-based; conditions: RU486 at 0.5 µM and 1.0 µM
Protocol: as §2
Effect of αAED on growth of lymphoid neoplasm (P388D1 cells obtained from the American Type Culture Collection) in the presence of RU486 at concentration of 0.5 µM and 1.0 µM was studied in accord with the methods described above.

RAW 264.7 = experiment: Proliferation of macrophage myeloma cells; format: cell-based, murine
Protocol: as §2
Effects of αAED at doses of 50 ηM and 100 ηM doses on murine macrophage myeloma cells (RAW 264.7, obtained from the American Type Culture Collection) was studied.

SMILES	proliferation in the presence of estradiol (Example 3) (ZR-75-1 cells [1]; 1 ηM estradiol, higher doses of αAED, 6 day period)	cell proliferation (Example 1) (ZR-75-1 cells [1]; 6.25 ηM)	cell proliferation (Example 1) (ZR-75-1 cells [1]; 25 ηM)	cell proliferation (Example 1) (ZR-75-1 cells [1]; 50 ηM)	maximal dose of anti-proliferative effect (ZR-75-1 cells [1]; ZR-75-1 cells, 6 days)	growth of ZR-75-1 cells (ZR-75-1 cells [1]; concentration of 25 nM or greater)	proliferation of ZR-75-1 cells compared with the vehicle control (ZR-75-1 cells [1]; concentrations between 6.25 and 12.5 ηM (P<0.01))	effect on the growth of ZR-75-1 cells compared to vehicle control (ZR-75-1 cells [1]; doses ranging from 3.13 ηM to 50 ηM, after 6 days)	proliferation of cells in the presence of RU486 (Example 5) (ZR-75-1 cells [1]; αAED with 0.5 µM RU486)	proliferation of cells in the presence of βAED (Example 2) (ZR-75-1 cells [1]; βAED constant at 2.5 ηM, all concentrations of αAED)	antiproliferative effects in the presence of Flutamide (Example 4) (ZR-75-1 cells [1]; ≥6.25 ηM αAED, with Flutamide, 6 day period)	cytotoxicity (cell count and viability) (ZR-75-1 cells [2])	growth of lymphoid neoplasm in the presence of RU486 (Example 8) (P388D1 cells)	proliferation of murine macrophage myeloma cells (Example 9) (RAW 264.7; 50 ηM)	proliferation of murine macrophage myeloma cells (Example 9) (RAW 264.7; 100 ηM)	antiproliferative effect on the growth of the ZR-75-1 cells (ZR-75-1 cells [1]; alone at 100 ηM)
C[C@]12CC[C@H]3[C@@H](CC=C4C[C@@H](O)CC[C@@]43C)[C@@H]1CC[C@H]2O [αAED, 5-androstene 3β,17α diol]	suppressed proliferation	increasing proliferation	decreasing cell proliferation	marked decrease	100 ηM	significantly inhibited the growth	stimulated proliferation	biphasic effect	synergistic action to decrease proliferation of cells	decreased proliferation	greatly enhanced	not toxic	increased effectiveness over use of one agent	significant inhibition of proliferation	significant inhibition of proliferation	
C[C@]12CC[C@H]3[C@@H](CC=C4C[C@@H](O)CC[C@@]43C)[C@@H]1CC[C@@H]2O [βAED, 5-androstene 3β,17β diol, reference compound]																did not have any antiproliferative effect
